Measured values taken from patent US4693992A, “Bacitracin-metal-polyether antibiotic complexes” (International Minerals & Chemical Corp., priority 1985, dated 1987).

What was measured:
Eimeria tenella [1] = assay: Anticoccidial activity in chickens inoculated with Eimeria tenella oocysts (Example 11); format: in vivo; conditions: for Incidence of Bloody Droppings / Morbidity: 4th-6th day; for Mortality: 4th-7th day
Experimental: (§1) This example describes experimental testing of complexes of this invention for anticoccidial activity. Anticoccidial activities of test compounds were determined by administering the compounds (in feed) to chickens inoculated with active oocysts of Eimeria tenella. The test compounds, which are listed in Table 1 below, included four bacitracin-metal-polyether antibiotic complexes prepared according to the procedures described above. In addition, sodium lysocellin, regular bacitracin, sodium monensin, sodium lasolocid, and unmedicated inoculated and noninoculated controls were included for comparative purposes.
(§2) The test animals were Hubbard White Mountain male chicken (broiler strain) that were 5 days old at the beginning of the test. Each experimental compound was administered in a chick starter diet (Table 2) at a level of 80 g/ton and 120 g/ton. At 7 days of age, chicks were individually weighed, banded, and started on their respective treatments. Each treatment was replicated three times with five birds per replicate for a total of 15 birds per group. The test period was 10 days.
Seventy-two hours after the initiation of medication, birds were reweighed and orally inoculated with approximately 100,000 Eimeria tenella oocysts suspended in a 1 cc dose of saline. The following criteria were then evaluated over the next seven days: […]
a. morbidity (4th-6th day) b. mortality (4th-7th day) c. incidence of bloody droppings (4th-6th day)

[2] = Weight gain and feed utilization efficiency in chicks, 11 days (Example 13); format: in vivo, chicken; parameters: key to Average Weight: average weight in grams; conditions: .00275% in rye basal diet
Experimental: (§3) This example describes experimetnal testing of complexes of the present invention as feed additives for improving weight gain or feed utilization efficiency in birds. Test animals were male meat-type chickens (Hubbard strain). Fluorescent room lights were on a 16 hours light/8 hours dark schedule. The chicks were allotted to the pens on the basis of weight classes, and chicks in the even numbered pens were wing banded. Group weights were obtained at the start and individual weights at the termination of the experiment. Chicks weighing between 55 and 65 grams were selected for the test. The test compounds were blended with a basal feed ration (shown in Table 2) at the indicated concentration. Birds fed […] and feed supplemented with zinc bacitracin (Baciferm® 50, International Minerals and Chemical Corp.) were used as controls. The test was continued for 11 days, after which individual weights, pen weight and feed consumption were recorded and analyzed.

[3] = Weight gain and feed utilization in chicks, 12 days (Example 14); format: in vivo, chicken; conditions: .0066% in feed
Experimental: as §3
All of the bacitracin-metal-polyether antibiotic complexes tested produced statistically significant increases in gains compared to the unmedicated basal ration.
The test involving test compounds 1 and 3-14 consisted of 5 replicates of 7 chicks and those involving test compound 2 consisted of 6 replicates of 7 chicks. The tests were continued for 12 days, after which individual weight gains and feed conusumption were recorded and analyzed.

Eimeria tenella [4] = assay: Anticoccidial activity in chickens inoculated with Eimeria tenella (Example 12); format: in vivo, chicken; conditions: for Cecal Bleeding / Gain/Bird Days 0-3 / Gain/Bird Days 4-10: regrouped part of Table 2
Experimental: as §1, §2
Seventy-two hours after the initiation of medication, birds were reweighed and orally inoculated with approximately 100,000 Eimeria tenella oocysts suspended in a 1 cc dose of saline. The following criteria were then evaluated over the next seven days:
A satisfactory challenge was obtained with Eimeria tenella.

[5] = 80 g/ton in feed, feed per gain
[6] = 120 g/ton in feed, feed per gain

Compound: CC[C@@]1([C@@H]2O[C@@H]([C@H]3O[C@@](O)(CO)[C@H](C)C[C@@H]3C)C[C@@H]2C)CC[C@H]([C@]2(C)CC[C@]3(C[C@H](O)[C@@H](C)[C@@H]([C@@H](C)[C@@H](OC)[C@H](C)C(=O)O)O3)O2)O1 [Monensin, sodium monensin, reference compound]
- protection against cecal bleeding (Eimeria tenella [1]; level in feed not given): fair
- tolerance by the birds (Eimeria tenella [1]; level in feed not given): not tolerated well
- Incidence of Bloody Droppings (Eimeria tenella [1]; level in feed not given): Slight
- Morbidity (Eimeria tenella [1]; level in feed not given): 5/15
- Mortality (Eimeria tenella [1]; level in feed not given): 0/15
- F/G Day 0-3 (Eimeria tenella [1]; level in feed not given): 1.81
- Gain, Grams Day 0-3 (Eimeria tenella [1]; level in feed not given): 53.2 Grams
- F/G Day 4-10 (Eimeria tenella [1]; level in feed not given): 1.64
- Gain, Grams Day 4-10 (Eimeria tenella [1]; level in feed not given): 202.5 Grams

Compound: Bacitracin-Manganese-Lysocellin Complex [Example 3]
- Average Gain ([2]; 11 days): 215 g
- Gain/Feed Ratio ([2]; 11 days): 64.6
- Average Weight ([2]; Table 4): 274.8
- Gain/Feed ([2]; Table 4): 64.6
- Average Gain Index ([2]; unmedicated = 100): 104.5
- Gain/Feed Ratio Index ([2]; unmedicated = 100): 101.3
- Gain/Feed Data ([3]; 12 days): .588
- Gains/gram Data ([3]; 12 days): 202.0 gram
- Gain/Feed Index Relative to #1 ([3]; #1 = unmedicated): 104.4
- Gains Index Relative to #1 ([3]; #1 = unmedicated): 109.1
- Gain/Feed Index Relative to #2 ([3]; #2 = zinc bacitracin): 98.6
- Gains Index Relative to #2 ([3]; #2 = zinc bacitracin): 96.4
- anticoccidial activity (in words) (Eimeria tenella [1]; 80 and 120 g/ton, mild E. tenella challenge): excellent anticoccidial activity
- Incidence of Bloody Droppings (Eimeria tenella [1]; 80 g/ton in feed): None
- Morbidity (Eimeria tenella [1]; 80 g/ton in feed, birds affected/birds in group): 1/15
- Mortality (Eimeria tenella [1]; 80 g/ton in feed, birds dead/birds in group): 0/15
- Gain, Grams Day 0-3 (Eimeria tenella [1]; 80 g/ton in feed): 61.7 Grams
- Gain, Grams Day 4-10 (Eimeria tenella [1]; 80 g/ton in feed): 226.6 Grams
- F/G Day 0-3 (Eimeria tenella [1]; [5]): 1.62
- F/G Day 4-10 (Eimeria tenella [1]; [5]): 1.59
- Incidence of Bloody Droppings (Eimeria tenella [1]; 120 g/ton in feed): None
- Morbidity (Eimeria tenella [1]; 120 g/ton in feed, birds affected/birds in group): 1/15
- Mortality (Eimeria tenella [1]; 120 g/ton in feed, birds dead/birds in group): 0/15
- Gain, Grams Day 0-3 (Eimeria tenella [1]; 120 g/ton in feed): 57.7 Grams
- Gain, Grams Day 4-10 (Eimeria tenella [1]; 120 g/ton in feed): 231.8 Grams
- F/G Day 0-3 (Eimeria tenella [1]; [6]): 1.68
- F/G Day 4-10 (Eimeria tenella [1]; [6]): 1.61
- Cecal Bleeding (Eimeria tenella [4]; 14 g/ton Lasalocid (Approx.)): Moderate
- Gain/Bird Days 0-3 (Eimeria tenella [4]; 14 g/ton Lasalocid (Approx.)): 61.3
- Gain/Bird Days 4-10 (Eimeria tenella [4]; 14 g/ton Lasalocid (Approx.)): 154.0
- Cecal Bleeding (Eimeria tenella [4]; 36 g/ton Lasalocid (Approx.)): Slight-Moderate
- Gain/Bird Days 0-3 (Eimeria tenella [4]; 36 g/ton Lasalocid (Approx.)): 61.3
- Gain/Bird Days 4-10 (Eimeria tenella [4]; 36 g/ton Lasalocid (Approx.)): 202.4
- Incidence of Bloody Droppings (Eimeria tenella [4]; 80 g/ton in feed): Moderate
- Morbidity (Eimeria tenella [4]; 80 g/ton in feed): 10/15
- Mortality (Eimeria tenella [4]; 80 g/ton in feed): 0/15
- F/G Day 0-3 (Eimeria tenella [4]; 80 g/ton in feed): 1.81
- Gain/Bird Grams Day 0-3 (Eimeria tenella [4]; 80 g/ton in feed): 61.3 Grams
- F/G Day 4-10 (Eimeria tenella [4]; 80 g/ton in feed): 2.01
- Gain/Bird Grams Day 4-10 (Eimeria tenella [4]; 80 g/ton in feed): 154.0 Grams
- Morbidity (Eimeria tenella [4]; 120 g/ton in feed): 2/15
- Mortality (Eimeria tenella [4]; 120 g/ton in feed): 0/15
- F/G Day 0-3 (Eimeria tenella [4]; 120 g/ton in feed): 1.58
- Gain/Bird Grams Day 0-3 (Eimeria tenella [4]; 120 g/ton in feed): 61.3 Grams
- F/G Day 4-10 (Eimeria tenella [4]; 120 g/ton in feed): 1.74
- Gain/Bird Grams Day 4-10 (Eimeria tenella [4]; 120 g/ton in feed): 202.4 Grams
- anticoccidial activity (in words) (Eimeria tenella [4]; 120 grams per ton): good anticoccidial activity
